From PubChem BioAssay AID1259418 (Broad Institute, 2018) come the findings set out here.

Structures are written as SMILES. Values joined by “and” are separate entries in the source; they are usually repeats but may differ in a detail not shown here. Equal entries are not always repeated. Inconclusive results are not listed. Active and inactive are the calls of the source.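 How the source made its calls: active means fitted half-maximal concentration of signal decrease at or below twice the sample's top tested concentration; inconclusive means flat curve between -70 and -30 percent, or poor fit; inactive means flat within 30 percent, signal rise, or potency above limit.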

For the assay, the target named is T. gondii ME49Luc in IFN-y HeLa, luciferase, 72 h. The experiment in a line: inhibitors of Toxoplasma growth in IFN-γ-primed HeLa – cell-based, ME49Luc, luciferase, 72 h, dose response (AID 1259418).
Turning to `COc1ccc2c(c1)NC1(CCN(C(=O)c3ccc(F)cc3)CC1)c1cccn1-2`, the AC50 (commonly the concentration at which the activity in the assay is half-maximal) is > 20 µM (inactive). Regarding `O=C(CCC1N=C2c3ccccc3N=C(SCc3ccccc3F)N2C1=O)NCc1ccccc1` (stereo not given), the AC50 was 29.4 µM. With `Cc1cc(C(=O)N2CCC(c3cc4c(ncn4C)c(NCC4CC4)n3)CC2)ccc1Cl` the figure was 23.1 µM. Under `O=C(NCCc1csc(-c2ccccc2)n1)[C@H]1CCCN1C(=O)c1ccccc1` stands 36.5 µM; under `CCc1ccc(C(=O)Nc2ccc3c(c2)CCC(=O)N3C)cc1`, 7.06 µM; under `O=S(=O)(c1ccccc1)N1CCc2c([nH]c3ccccc23)C1c1cc(F)ccc1F` (stereo not given), 12.6 µM.

In the case of `O=C1CN(S(=O)(=O)c2cccc(F)c2)C[C@@H]2[C@@H](c3ccc(C4=CCCC4)cc3)[C@H](CO)N12`, the AC50 is > 39 µM (inactive). On to `CCCNC(=O)[C@H]1[C@H](CO)[C@H]2Cn3c(ccc(C4=CCCCC4)c3=O)[C@H]2N1Cc1ccccc1F`, for which the AC50 is 8.99 µM.

For the compound `Cc1ccc(S(=O)(=O)N2CCC3(CC2)NCCN=C3NCc2ccc(C(F)(F)F)cc2)c(C)c1`, the AC50 was 9.08 µM. As to `Cc1nc2ccccn2c1CN(C)Cc1cnn(-c2ccccc2)c1`, the AC50 is > 39 µM (inactive).

Turning to `O=C(Cc1ccncc1)N1CCCCN2[C@@H](CO)[C@@H](c3ccc(C#Cc4ccccc4F)cc3)[C@@H]2C1`, the AC50 is 20.9 µM and 12.3 µM. In the case of `C[C@@H]1CN([C@@H](C)CO)C(=O)c2cccc(NC(=O)NC3CCCCC3)c2O[C@@H]1CN(C)Cc1ccc(C(F)(F)F)cc1`, the half-maximal activity concentration (AC50) was 25.7 µM. Under `Cc1ccccc1S(=O)(=O)N1CC[C@@H]2[C@H]1c1cc(-c3cccc(F)c3)ccc1N(C)[C@H]2CO` stands 17.7 µM. Turning to `Cn1nc2c(c1C(=O)Nc1ccc(N3CCCCC3)c(F)c1)CCCC2`, the AC50 was 15.9 µM. With `O=S(=O)(c1cccs1)N1CCC2(CC1)NCCN=C2NCc1cccc(F)c1` the figure was 26.1 µM; with `COc1ccc(S(=O)(=O)N(C)C[C@H]2Oc3c(NC(=O)c4nc5ccccc5s4)cccc3C(=O)N([C@@H](C)CO)C[C@@H]2C)cc1`, 1.77 µM and 0.196 µM; with `O=C(CCC1N=C2c3ccccc3N=C(SCc3cccc(F)c3)N2C1=O)NCc1ccccc1` (stereo not given), 27.4 µM. With `Cc1cccc(N2CCN(C(=O)CC3Nc4c5ccccc5nc(=S)n4C3=O)CC2)c1C` (stereo not given) the figure was 26.9 µM. With `COc1ccccc1C(=O)N1CCC2(CC1)Nc1ccc(Cl)cc1-n1cccc12` the figure was 33.9 µM; with `Fc1ccc(Nc2nc(SCc3ccc(Cl)cc3)nc3ccccc23)cc1F`, 17.3 µM; with `CCc1c(C)sc2c1CCN(Cc1nc(-c3cccc(OC)c3OC)oc1C)C2c1ccccc1` (stereo not given), 15.7 µM. With `Cc1ccc2[nH]c(C(=O)NCc3cccnc3)c(NC(=O)c3ccc(F)cc3)c2c1`, the AC50 was 27.6 µM. Under `CCCN1CCN(CCCNc2nc(-c3ccc(OC)cc3)nc3ccccc23)CC1` stands 21.9 µM. Under `O=C1CCc2cc(S(=O)(=O)N3CCc4ccccc43)cc3c2N1CCC3` stands > 39 µM (inactive); under `CCc1c(C)sc2c1CCN(Cc1nc(-c3ccc(OC(C)C)cc3)oc1C)C2c1ccccc1` (stereo not given), > 39 µM (inactive); under `Fc1ccc(Nc2nc(SCc3ccccc3Cl)nc3ccccc23)cc1F`, 11.3 µM. With `CCN1C(=O)CCc2cc(NC(=O)Cc3cccc(OC)c3)ccc21` the figure was 23 µM; with `CCCCNC(=O)CCC1N=C2c3ccccc3N=C(SCc3cccc(Cl)c3)N2C1=O` (stereo not given), 14.6 µM. With `N#C[C@H]1[C@@H](c2ccc(-c3cccc(F)c3)cc2)[C@H](CO)N1C(=O)NC1CCCC1`, the AC50 is 10.1 µM. On to `Cc1ccc2[nH]c(C(=O)NCc3ccncc3)c(NC(=O)c3ccc(F)cc3)c2c1`, for which the AC50 was 1.99 µM. Turning to `COc1ccc(-c2nc(C)c(-c3ccc(SCc4cc(C)ccc4C)nn3)s2)cc1`, the AC50 is > 39 µM (inactive). In the case of `COc1cccc(-c2ccc3c(c2)[C@H]2[C@H](CCN2S(=O)(=O)c2ccccc2F)[C@H](CO)N3)c1`, the AC50 was 19.3 µM. Regarding `N#Cc1ccc(-c2ccc(C3[C@@H]4CN(S(=O)(=O)c5ccc(F)cc5)C[C@H]3N4)cc2)cc1` (stereo not given in full), the AC50 is 12.1 µM and 13.8 µM. With `Oc1cccc(-c2nccn2-c2cccc(-c3ccn[nH]3)c2)c1` the figure was 22.7 µM; with `COc1ccc(-c2nc(NC3CC3)c3ccccc3n2)cc1`, 14.9 µM. `CCCC#Cc1ccc([C@H]2[C@H](CO)N3C(=O)CN(C(=O)Nc4cccc(F)c4)C[C@@H]23)cc1`: the AC50 is 10.4 µM. Under `N#Cc1cccc(-c2ccc3c(c2)[C@@H]2[C@@H](CCN2S(=O)(=O)c2ccc(F)cc2)[C@@H](CO)N3)c1` stands 15.7 µM. Under `O=C(c1ccc2c(c1)OCO2)N1C[C@@H]2N[C@H](C1)C2c1ccc(/C=C/c2ccccc2)cc1` (stereo not given in full) stands 8.94 µM and 21.9 µM. With `Cc1ccc(-c2nc(CN(c3ccccc3C)S(=O)(=O)c3cccs3)c(C)o2)cc1` the figure was 9.63 µM; with `COc1ccccc1C#Cc1ccc([C@H]2[C@H](CO)N3CCCCN(C(=O)C4CCC4)C[C@@H]23)cc1`, 13.5 µM and 5.77 µM. As for `CN1c2ccc(-c3ccccc3)cc2[C@H]2[C@H](CCN2C(=O)CC2CC2)[C@@H]1CO`, the AC50 was 18.8 µM. Regarding `O=S(=O)(c1cccs1)N1CCCCN2[C@H](CO)[C@@H](c3ccc(/C=C/c4ccccc4)cc3)[C@@H]2C1`, the AC50 was 22 µM. Under `Cc1ccc(C)c(S(=O)(=O)N2CCC3(CC2)c2ncc(-c4cccc(F)c4)n2CCN3C)c1` stands 20.9 µM.

Turning to `N#CCSC1=Nc2ccccc2C2=NC(CC(=O)NCc3cccs3)C(=O)N12` (stereo not given), the concentration at half-maximal activity (AC50) is 19.6 µM. With `Cc1ccc(CSC2=Nc3ccccc3C3=NC(CCC(=O)NCc4cccs4)C(=O)N23)cc1` (stereo not given) the figure was 17.5 µM; with `CC[C@H]1CN2CCC1C[C@@H]2[C@H](O)c1ccnc2ccc(OC)cc12` (stereo not given in full), 20 µM; with `N#C[C@H]1[C@H](c2ccc(-c3cccc(F)c3)cc2)[C@@H](CO)N1C(=O)NC1CCCC1`, 16.7 µM. With `Cc1ccccc1S(=O)(=O)N1CCC(C(=O)NCCc2csc(-c3ccccc3)n2)CC1` the figure was 25.6 µM. Turning to `CC(C)CNc1nc2c(cc1C(=O)NCC1CC1)CCN(c1ccncn1)CC2`, the AC50 is 19 µM. With `Cc1cc2nc(CN3CCCC(CCc4ccc(F)cc4F)C3)cc(=O)n2[nH]1` (stereo not given) the figure was > 20 µM (inactive); with `Cc1ccc(-c2nc(CN(c3ccccc3)S(=O)(=O)c3ccccc3)c(C)o2)cc1`, 10.3 µM. With `CCc1ccccc1S(=O)(=O)N1CCc2nc(-c3ccc(OC)cc3)sc2C1` the figure was 7.8 µM and 14.9 µM; with `Cc1cccc(-c2ccc([C@H]3[C@@H](CO)N4CCCCN(S(=O)(=O)c5ccccc5F)C[C@H]34)cc2)c1`, 16.9 µM and 13.6 µM. Under `O=S(=O)(c1ccccc1)N1CCc2c([nH]c3ccccc23)C1c1ccc(F)c(F)c1` (stereo not given) stands 13.9 µM; under `COc1ccc(S(=O)(=O)N2CCCCN3[C@H](CO)[C@@H](c4ccc(C#CCC(C)C)cc4)[C@H]3C2)cc1`, 4.13 µM and 4.65 µM; under `CCC(=O)N1CCC2(CC1)Nc1ccc(Cl)cc1-n1cccc12`, 31 µM. As to `O=C(Nc1ccc(F)cc1)N1C[C@@H]2N[C@H](C1)C2c1ccc(/C=C/c2ccccc2)cc1` (stereo not given in full), the AC50 was 10.3 µM and 2.14 µM. For the compound `Cc1nnsc1CN(C)Cc1[nH]c2ccc(F)cc2c1C`, the AC50 is > 39 µM (inactive).

`Cc1ccc(C)c(S(=O)(=O)N2CCC3(CC2)NCCN=C3NCc2ccccc2Cl)c1`: the AC50 was 5.36 µM. Under `COCCCN(Cc1ccco1)c1nc(-c2ccc(OC)cc2)nc2ccccc12` stands 16.9 µM.
